From patent US20230050965A1, “SSTR5 ANTAGONISTS” (Kallyope, Inc., priority 2019, published 2023)
pIC50: −log10 of the molar value.

Target: T1, human SSTR5 (Homo sapiens, UniProt P35346)
T1 construct: expressed in transfected cells
Assay: Inositol phosphate (IP1) accumulation assay, antagonist mode
Assay type: cell-based
Settings: CHO-K1 cells stably co-expressing human SSTR5 with Gqi5; pre-incubation with antagonist, then SST28 agonist; IP1 HTRF readout
Description: Inositol Phosphate Accumulation Assay
CHO-K1 cells stably co-expressing human SSTR5 with Gqi5 were developed using Jump-In technology from Thermo-Fisher. Gqi5 is the mouse G alpha q protein, that was modified to interact with Gi-coupled GPCRs as described previously (Coward, P.; Chan, S. D.; Wada, H. G.; Humphries, G. M.; Conklin, B. R. Chimeric G proteins Allow a High-Throughput Signaling Assay of Gi-Coupled Receptors. Anal Biochem. 1999, 270(2), 242-248).
Co-expression of Gqi5 with SSTR5 allowed monitoring of SSTR5 activity by following IP1 accumulation. The assay was performed in a 384-well plate format using the IP1 assay kit from Cis-Bio in an antagonist mode, i.e., pre-incubation with antagonist following by receptor activation by agonist at a concentration generating 90% of full activation. Frozen cells expressing human SSTR5 were thawed, washed, and then plated in DMEM supplemented with 10% FBS and non-essential amino acids. 40 μL of 2.5×10^5 cells/mL were plated on a Poly D-Lysine coated 384-well white plate. The cells were then incubated for 16 hr. at 37° C./5% CO2. After 16 hour the medium was removed, and 10 μL of stimulation buffer was added to the cells. Test compounds were dissolved in DMSO at concentrations 2000-fold that of the final assay concentrations. 7.5 nL compound solutions were transferred to the cell plates using a Labcyte Echo® acoustic liquid handler. The plates were then incubated for 15 minutes at 37° C./5% CO2. After the first incubation, 5 μL of 30 nM SST28 were added to the cells, and the cells were incubated for 90 minutes at 37° C./5% CO2. 5 μL of detection buffer (prepared as described in the IP-1 kit) was added to each well, and the plates were incubated at RT for 1 hour.
TR-FRET was measured using a ClarioSTAR plate reader, calculating the ratio between emissions at 665 nm and 620 nm (HTRF ratio). The HTRF ratio for positive (Max) and negative (Min) controls were used to normalize HTRF data and generate values for % inhibition. IC50 and maximal inhibition values were determined using a standard 4-parameter fit.

T1 sequence (P35346 whole entry): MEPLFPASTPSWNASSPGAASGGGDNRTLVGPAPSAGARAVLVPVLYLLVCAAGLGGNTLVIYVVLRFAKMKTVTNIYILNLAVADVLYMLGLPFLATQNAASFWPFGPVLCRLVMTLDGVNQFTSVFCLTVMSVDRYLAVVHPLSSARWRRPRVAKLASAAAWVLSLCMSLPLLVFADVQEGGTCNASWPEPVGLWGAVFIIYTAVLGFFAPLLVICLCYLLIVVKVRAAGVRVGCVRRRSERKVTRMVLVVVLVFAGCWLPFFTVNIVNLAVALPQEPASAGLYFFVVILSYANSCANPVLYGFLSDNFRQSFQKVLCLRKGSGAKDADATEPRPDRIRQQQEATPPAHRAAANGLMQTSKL

pIC50	SMILES
≥ 7.00	CCOc1cc(-c2ccc(F)cc2)c(C2CC2)cc1CN1CCC2(CC1)CN(c1ccc(CCNC(=N)NC(=N)N)cc1)C(=O)O2 [Compound 14, 1-carbamimidoyl-3-[2-[4-[8-[[5-cyclopropyl-2-ethoxy-4-(4-fluorophenyl)phenyl]methyl]-2-oxo-1-oxa-3,8-diazaspiro[4.5]decan-3-yl]phenyl]ethyl]guanidine]
≥ 7.00	CCOc1cc(-c2ccc(F)cn2)c(C2CCC2)cc1CN1CCC2(CC1)CN(c1ccc(P(=O)(O)O)cc1)C(=O)O2 [Compound 35, (4-(8-(5-cyclobulyl-2-ethoxy-4-(5-fluoropyridin-2-yl)benzyl)-2-oxo-1-oxa-3,8-diazaspiro[4.5]decan-3-yl)phenyl)phosphonic acid]
6.00 to 7.00	CCOc1cc(S(C)(=O)=O)c(C2CC2)cc1CN1CCC2(CC1)CN(c1cccc(CCCCNC(=O)NC(CO)(CO)CO)c1)C(=O)N2 [Compound 31, 1-(4-(3-(8-(5-cyclopropyl-2-ethoxy-4-(methylsulfonyl)benzyl)-2-oxo-1,3,8-triazaspiro[4.5]decan-3-yl)phenyl)butyl)-3-(1,3-dihydroxy-2-(hydroxymethyl)propan-2-yl)urea]
≥ 7.00	CCOc1cc(-c2ccc(F)cc2)c(C2CC2)cc1CN1CCC2(CC1)CN(C13CC(CP(=O)(O)O)(C1)C3)C(=O)O2 [Compound 12, ((3-(8-((2-cyclopropyl-5-ethoxy-4′-fluoro-[1,1′-biphenyl]-4-yl)methyl)-2-oxo-1-oxa-3,8-diazaspiro[4.5]decan-3-yl)bicyclo[1.1.1]pentan-1-yl)methyl)phosphonic acid]
≥ 7.00	CCOc1nc(-c2ccc(F)cc2)c(C2CC2)cc1CN1CCC2(CC1)CN(c1ccc(P(C)(=O)O)cc1)C(=O)O2 [Compound 4, (4-(8-((5-cyclopropyl-2-ethoxy-6-(4-fluorophenyl)pyridin-3-yl)methyl)-2-oxo-1-oxa-3,8-diazaspiro[4.5]decan-3-yl)phenyl)(methyl)phosphinic acid]
≥ 7.00	CCOc1cc(-c2ccc(F)cc2)c(C2CC2)cc1CN1CCC2(CC1)CN(c1ccc(P(=O)(O)O)cc1)C(=O)N2 [Compound 22, (4-(8-((2-cyclopropyl-5-ethoxy-4′-fluoro-[1,1′-biphenyl]-4-yl)methyl)-2-oxo-1,3,8-triazaspiro[4.5]decan-3-yl)phenyl)phosphonic acid]
≥ 7.00	CCOc1cc(-c2ccc(F)cc2)c(C2CC2)cc1CN1CCC2(CC1)CN(c1ccc(B(O)O)cc1)C(=O)O2 [Compound 13, (4-(8-((2-cyclopropyl-5-ethoxy-4′-fluoro-[1,1′-biphenyl]-4-yl)methyl)-2-oxo-1-oxa-3,8-diazaspiro[4.5]decan-3-yl)phenyl)boronic acid]
≥ 7.00	CCOc1cc(-c2nc(C)no2)c(C2CC2)cc1CN1CCC2(CC1)CN(c1ccc(P(=O)(O)O)cc1)C(=O)N2 [Compound 27, (4-(8-(5-cyclopropyl-2-ethoxy-4-(3-methyl-1,2,4-oxadiazol-5-yl)benzyl)-2-oxo-1,3,8-triazaspiro[4.5]decan-3-yl)phenyl)phosphonic acid]

SMILES	pIC50
CCOc1cc(-c2ccc(F)cc2)c(C2CC2)cc1CN1CCN(S(=O)(=O)Cc2ccc(P(=O)(O)OCC)cc2)CC1 [Compound 39, ethyl hydrogen (4-(((4-((2-cyclopropyl-5-ethoxy-4′-fluoro-[1,1′-biphenyl]-4-yl)methyl)piperazin-1-yl)sulfonyl)methyl)phenyl)phosphonate]	≥ 7.00
CCOc1cc(C(=O)OC)c(C2CC2)cc1CN1CCN(C(=O)Oc2ccc(CNC[C@H](O)[C@@H](O)[C@H](O)[C@H](O)CO)cc2)CC1 [Compound 42, 4-((((2S,3R,4R,5R)-2,3,4,5,6-pentahydroxyhexyl)amino)methyl)phenyl 4-(5-cyclopropyl-2-ethoxy-4-(methoxycarbonyl)benzyl)piperazine-1-carboxylate]	< 5.30
